This data set can be described thus: GHS categories as the set defines them, by LD50: 1 up to 5, 2 up to 50, 3 up to 300, 4 up to 2000, 5 above 2000 mg/kg. Particulars: rat; in vivo; po.

Results on 100 molecules are retold here after the CATMoS acute toxicity set (Mansouri et al. 2021).

For the molecule `CC(=O)N(C)C(=O)Oc1cccc2c1OC(C)(C(C)(C)C)O2` (stereo not given), the GHS category amounted to 4.
`O=S(=O)([O-])CCC[n+]1ccccc1` yielded a GHS category of 5.
For `CCCCCCc1ccc(OP(=O)(Oc2ccccc2)Oc2ccccc2)cc1`, the GHS category is 5.
The molecule `CCCCCC(=O)CC` gave a GHS category of 5.
`O=C1CC(c2ccccc2)c2cc(Br)ccc2O1` (stereo not given) registered a GHS category of 5.
On to `O=C1c2ccccc2C(=O)c2c(O)ccc(O)c21`, for which the GHS category was 5.
The molecule `COc1ccc(Cl)cc1C(=O)NCCc1ccc(S(=O)(=O)NC(=O)NC2CCCCC2)cc1` returned a GHS category of 5.
As to `CCOCC(C)OC(C)=O` (stereo not given), the GHS category is on record as 5.
Molecule `CO[Si](CC(C)CC(C)(C)C)(OC)OC` (stereo not given) yielded a GHS category of 5.
In the case of `CNc1ccc(C(=O)c2ccc(Cl)cc2)cc1O`, the GHS category is 5.
Regarding `CCSP(=O)(SCC)SCC`, the GHS category is 3.
On to `CN(C)[C@@H]1C(O)=C(C(N)=O)C(=O)[C@@]2(O)C(O)=C3C(=O)c4c(O)ccc(Cl)c4[C@@H](O)[C@H]3C[C@@H]12`, for which the GHS category was 5.
Turning to `CCOC(=O)C1(C)OC(=O)N(c2cc(Cl)cc(Cl)c2)C1=O` (stereo not given), the GHS category amounted to 5.
Consider `Cc1nc(N)sc1C(=O)N(C(C)C)C(C)C`, for which the GHS category was 4.
As for `Cc1cccc2ncc(C(=O)NC(C)(C)C)c(=O)n12`, the GHS category stood at 3.
For the molecule `C[C@]12COC(=O)C[C@@H]1CC[C@@H]1[C@@H]2CC[C@@]2(C)[C@H]1CC[C@]2(C)O`, the GHS category came to 5.
`ClCCCCc1nnnn1C1CCCCC1` showed a GHS category of 5.
The result for `CC(C)C1C=C2CCC3C(C)(CO)CCCC3(C)C2CC1` (stereo not given) reads 5.
`CCOC(=O)[C@H](CCc1ccccc1)N[C@H]1CCc2ccccc2N(CC(=O)O)C1=O` had a GHS category of 5.
As to `CCCN(CCC)C(=O)C(CCC(=O)OCCOC(=O)COC(=O)Cc1c(C)n(C(=O)c2ccc(Cl)cc2)c2ccc(OC)cc12)NC(=O)c1ccccc1` (stereo not given), the GHS category amounted to 4.
Consider `CCOP(=S)(OCC)N(SN(C)C(=O)ON=C(C)SC)C1CCCCC1`, for which the GHS category is given as 3.
In turn, `O=C(O)c1ccccc1N=Cc1ccccc1` gave a GHS category of 4.
Consider `CCOC(=O)/C=C(C)/C=C/C=C(C)/C=C/c1c(C)cc(OC)c(C)c1C`, for which the GHS category is on record as 5.
On to `COc1cc(CC2NCCc3cc(O)c(O)cc32)cc(OC)c1OC` (stereo not given), for which the GHS category was 5.
The molecule `FC(F)(F)OC(F)(Cl)C(F)(F)Cl` (stereo not given) showed a GHS category of 5.
Consider `O=C(NC(=O)c1c(F)cccc1F)Nc1ccc(Oc2ccc(C(F)(F)F)cc2Cl)cc1F`, for which the GHS category was found to be 5.
In turn, `CCNC(=O)CCCSCc1nnnn1CC` displayed a GHS category of 4.
As to `CN1C(=O)C(C)(C)Oc2cc(C(=O)C=Cc3ccc(O)cc3)ccc21`, the GHS category came to 5.
For the molecule `O=[N+]([O-])c1ccc(OP(=S)(Oc2ccc([N+](=O)[O-])cc2)Oc2ccc([N+](=O)[O-])cc2)cc1`, the GHS category was determined as 5.
`CN(C)CCCNc1nc2cc(Cl)ccc2o1` returned a GHS category of 4.
For the molecule `Cc1ccc(OC(=O)c2ccccc2OC(N)=O)cc1`, the GHS category was determined as 5.
With `CCCCCCOC=O` the figure was 5.
With `CN(C)C1C(=O)C(=C(O)NCN2CCCC2C(=O)O)C(=O)C2(O)C(=O)C3=C(O)c4c(O)cccc4C(C)(O)C3CC12` (stereo not given) the figure was 5.
The molecule `COc1ccc2cccc(CC#N)c2c1` registered a GHS category of 5.
With `CNc1cnn(-c2cccc(C(F)(F)F)c2)c(=O)c1Cl` the figure was 5; with `CC(C)(C)CC(C)(C)c1ccc(O)c(-n2nc3ccccc3n2)c1`, 5; with `CCCCC/C=C\C/C=C\CCCCCCCC(=O)NC(C)c1ccccc1` (stereo not given), 5.
The molecule `NC(=O)NC1CCC(=O)c2sccc21` (stereo not given) came in with a GHS category of 5.
On to `Cc1cccc(C)c1OP(=O)(Oc1c(C)cccc1C)Oc1c(C)cccc1C`, for which the GHS category came to 5.
On to `C[C@H]1CO[C@@](Cn2cncn2)(c2cc3cc(Cl)cc(Cl)c3o2)O1`, for which the GHS category turned out to be 4.
As for `CC(CC(=O)OCCN1C(C)(C)CC(OC(=O)CC(C)CC(C)(C)C)CC1(C)C)CC(C)(C)C` (stereo not given), the GHS category is on record as 5.
The result for `NNC(=O)NN` reads 5; that for `COCCOC=C1OC2=C(C(=O)N1c1ccccn1)N(C)S(=O)(=O)c1cc(Cl)sc12`, 2.
With `CCC[C@H]1CC[C@H](c2ccc(O)cc2)CC1` the figure was 5; with `COC(=O)c1ccc2c(c1)NC(=O)C2`, 5; with `CCCCCCCCCCCCCCCCCCOCCC[N+](C)(C)C`, 4.
For `CC(C)(C)C(=O)OCOC(=O)[C@@H]1N2C(=O)[C@@H](NC(=O)[C@H](N)c3ccccc3)[C@H]2SC1(C)C`, the GHS category turned out to be 5.
On to `O=S(=O)(O)c1cc(-n2nc3ccc4ccccc4c3n2)ccc1C=Cc1ccccc1`, for which the GHS category is recorded as 5.
`COC(=O)C1=C(C)NC(C)=C(C(=O)OC(C)C)C1c1cccc2nonc12` (stereo not given) had a GHS category of 5.
The result for `CC(=O)CC(=O)Nc1cc(C)c(NC(=O)CC(C)=O)cc1C` reads 5; that for `C(=C\c1ccccc1)/CN1CCN(C(c2ccccc2)c2ccccc2)CC1`, 5; that for `CC(C)OC(=O)Nc1nc(N2CC=CCC2)cc2nc(=O)on12`, 5.
Molecule `CCc1ccc(OCC=C(C)CCC2OC2(C)C)cc1` (stereo not given) showed a GHS category of 5.
With `O=S(=O)(O)c1ccc(Nc2nc(Nc3ccc(C=Cc4ccc(Nc5nc(Nc6ccc(S(=O)(=O)O)cc6)nc(N6CCOCC6)n5)cc4S(=O)(=O)O)c(S(=O)(=O)O)c3)nc(N3CCOCC3)n2)cc1`, the GHS category worked out at 5.
As to `NS(=O)(=O)c1cc(C2(O)NC(=O)c3ccccc32)ccc1Cl` (stereo not given), the GHS category is on record as 5.
`CCCCOC(=O)c1ccc(C(=O)OCCCC)cc1` yielded a GHS category of 5.
Consider `COCc1ccc(C=O)o1`, for which the GHS category stood at 5.
`COc1cc2c(cc1OC)C(c1ccccc1F)N(c1ccccc1)CC2` (stereo not given): the GHS category was determined as 4.
For the molecule `COP(=S)(OC)Oc1ccc(Cl)cc1C#N`, the GHS category turned out to be 4.
With `CC12CCC(=O)NC1=CCC1C2CCC2(C)C(C(=O)O)CCC12` (stereo not given) the figure was 5; with `Cc1ccc(C(C)C)c(OC(=O)c2ccccc2Nc2cccc(C)c2C)c1`, 5.
Regarding `ClC1C(Br)C(Br)C(Br)C(Br)C1Br` (stereo not given), the GHS category is reported as 5.
Turning to `COC(=O)CCN[N+](C)(C)C`, the GHS category is 3.
As for `CCCCCCC1CCCC1=O` (stereo not given), the GHS category stood at 5.
`CCOc1nc(NC)nc(NC(=O)NS(=O)(=O)c2ccccc2C(=O)OC)n1`: the GHS category turned out to be 5.
`CCCCOC(=O)c1ccc(-n2nc(OC)c3ccccc32)cc1` came in with a GHS category of 5.
For the molecule `CC(=O)Nc1cc2cccnc2c(N2CCN(CCO)CC2)n1`, the GHS category turned out to be 5.
`CCOC(=O)CCn1c(=N)oc2ccccc21` showed a GHS category of 4.
Take `OC1C(Cl)(Cl)C(=C(Cl)Cl)C2(OC2Cl)C1(Cl)Cl` (stereo not given): the GHS category was 4.
In the case of `CCCCCCCCCCCc1ccccc1`, the GHS category is on record as 5.
Take `CCCCCCC(=O)OC1CCC2C3CCC4=CC(=O)CCC4(C)C3CCC12C` (stereo not given): the GHS category came to 4.
`ClC(=Nc1c(Cl)c(Cl)c(Cl)c(Cl)c1Cl)C(Cl)(Cl)Cl` showed a GHS category of 4.
`CCN(CC)CCOC(=O)c1ccc(NC(=O)C(C)(C)Oc2ccccc2Cl)cc1` showed a GHS category of 5.
Molecule `O=c1[nH]c(CCl)nc2sc3c(c12)CCCC3` registered a GHS category of 5.
`FC(F)(F)c1cccc(C(c2ccccc2)(c2ccccc2)n2cncn2)c1` had a GHS category of 5.
With `CCCC(=O)O[C@H]1[C@H](C)O[C@@H](O[C@H]2[C@H](N(C)C)[C@@H](O)[C@H](O[C@H]3[C@@H](CC=O)C[C@@H](C)[C@@H](O)/C=C/C=C/C[C@@H](C)OC(=O)C[C@@H](O)[C@@H]3OC)O[C@@H]2C)C[C@@]1(C)OC(=O)CC` the figure was 5; with `CCCCCCCC/C=C\CCCCCCCC(=O)OC[C@@H](OC(=O)CCCCCCC/C=C\CCCCCCCC)[C@H]1OC[C@H](O)[C@H]1O`, 5.
On to `Clc1ccc(C(c2ccccc2Cl)C(Cl)Cl)cc1` (stereo not given), for which the GHS category was 5.
In the case of `Cc1cc(-n2nc3ccc(Cl)cc3n2)c(O)c(C(C)(C)C)c1`, the GHS category came out at 5.
`C=CCC(C)C` displayed a GHS category of 5.
`CCCCCCCCCCCCCCCC(=O)OC(C)C` came in with a GHS category of 5.
The result for `CCCCCCCC(=O)OCCC` reads 5; that for `COc1nc(C)nc(NC(=O)NS(=O)(=O)c2ccccc2OCCCl)n1`, 5.
The result for `CS(=O)(=O)c1ccc(C(=O)C2C(=O)CCCC2=O)c(Cl)c1` reads 5; that for `O=C(CCCCC(=O)N(CCO)CCO)N(CCO)CCO`, 5; that for `CCSCCCSc1nnnn1C`, 4.
`O=c1oc2ccc(Cl)cc2n1CO` had a GHS category of 4.
As to `CC(C)c1ccc(S(=O)(=O)O)cc1`, the GHS category is 5.
The molecule `COc1cc(OC)nc(NC(=O)NS(=O)(=O)Nc2ccccc2C(=O)N(C)C)n1` returned a GHS category of 5.
As for `CCCCCCCCCCCCCCCCCC(=O)OC`, the GHS category was determined as 5.
The molecule `C=CC(C)(O)CC/C=C(\C)CC/C=C(\C)CCC=C(C)C` (stereo not given) showed a GHS category of 5.
Consider `BrC1CC(Br)CC(Br)CC(Br)CC(Br)CC(Br)C1` (mixture of isomers), for which the GHS category worked out at 5.
On to `CC(C)(C)c1ccc(C2=C3C(=O)NC(c4ccc(C(C)(C)C)cc4)=C3C(=O)N2)cc1`, for which the GHS category is reported as 5.
`CC(C)(c1cc(Br)c(OCC(Br)CBr)c(Br)c1)c1cc(Br)c(OCC(Br)CBr)c(Br)c1` (stereo not given) displayed a GHS category of 5.
As for `O=c1nc(-c2cccnc2)[nH]c2ncccc12`, the GHS category worked out at 4.
Consider `C=C(C)C(C)(C)Cc1ccc(Nc2ccc(CC(C)(C)C(=C)C)cc2)cc1`, for which the GHS category is 5.
The result for `O=C(O)c1ccc(OCCn2ccnc2)cc1` reads 4; that for `CNC(=O)c1cc(C(O)CNC(C)(C)CCN2C(=O)OC(C)(C)c3ccccc32)ccc1O` (stereo not given), 4.
The result for `CCCCCCCCC=CCCCCCCOC(C)=O` reads 5; that for `CCO[Si](CN(CC)CC)(OCC)OCC`, 5.
